Experimental data from US9434686B2, “Deacetylase inhibitors and uses thereof” (President and Fellows of Harvard College, priority 2008, dated 2016).
Where “and” joins values, the source holds several entries; their conditions need not be identical. Equal entries are not always repeated. Where two headings read alike, the source gives them in different places.

Test: Pharmacokinetics of WT-161 in CD-1 mice after intravenous administration (plasma, LC-MS/MS)
Format: in vivo
Protocol: WT-III-161 (Wt: 458.55 for free base) was dissolved in 25% DMSO, 25% Cremophor EL, and 50% saline to yield final concentration at 2 mg/mL for intravenous administration (pH=6-7). The solution was clear and light yellow, and the concentration of WT-III-161 in it was confirmed by HPLC method with an accuracy of 116.92% (Table I).
Study design, animal selection, handling and treatment were in accordance with the Shanghai Medicilon Inc. study protocol (Shanghai Medicilon Inc Study No. BRD0701). Male CD0-1 mice (body weight 23 g to 27 g) were used in this study. Before the pharmacokinetic studies, animals were randomly assigned to the treatment groups (3 animals per timepoint). Ten additional mice were used to collect plasma for calibration curves.
[…] All the samples and the dose formulation were stored at −20° C. until bioanalysis or transportation to sponsor.
The concentrations of WT-161 in plasma were determined using a high pressure liquid chromatography/mass spectrometry (LC-MS/MS) method.
The LC system comprised an Aligent liquid chromatograph equipped with an isocratic pump (1100 series), an autosampler (1100 series) and a degasser (1100 series). Mass spectrometric analysis was performed using an API3000 (triple quadrupole) instrument from AB Inc (Canada) with an ESI interface. The data acquisition and control system were created using Analyst 1.4 software from ABI Inc. Acetonitrile and methanol were HPLC grade. All other solvents and chemicals were analytical grade or better.
Pharmacokinetic software DAS 2.0 (Gaosi Data Analysis Inc., Wuhn, China) was used.
Chromatographic conditions: ColumnL Synergi Fusion-RP, 4 μm (150 mm×2.0 mm); Mobile phase: 0.1% formic acid:methanol:acetonitrile (5:90:5); Elution rate: 350 μL/min; Column temperature: 25° C.; Injection volume: 2 μL.
Scan type: positive MRM; Ion Source: Turbo spray; Ionization mode: ESI; Nebulize gas: 8 L/min; Curtain gas: 8 L/min; Collision gas: 4 L/min; Ionspray voltage: 5000 V; Temperature: 500° C.
Plasma samples (0.1 mL) were transferred to Eppendorff tubes, then 20 μL of methanol, 500 μL IS solutions (50 ng/mL) were added to it. After vortexing for 1 minute and centrifuging for 5 min at 15,000 rpm, 2 μL of supernatant was injected onto the LC-MS/MS.
The concentration in plasma below the limit of quantitation (LOQ=5 ng/mL) were designated as zero. The pharmacokinetic data analysis was performed using noncompartmental analysis modules in DAS 2.0.

[1] = male, mouse, CD-1 mice, IV 5 mg/kg, plasma

O=C(CCCCCCC(=O)N/N=C/c1ccc(N(c2ccccc2)c2ccccc2)cc1)NO [WT-161]
Concentration in plasma, individual mice 1-3 (0.033 hr post-dose, IV 5 mg/kg, 5 mg/kg): 13606.91 ng/mL and 27492.70 ng/mL and 14890.74 ng/mL | Concentration in plasma, individual mice 1-3 (0.083 hr post-dose, IV 5 mg/kg, 5 mg/kg): 6082.36 ng/mL and 8591.87 ng/mL | Concentration in plasma, individual mice 1-3 (0.25 hr post-dose, IV 5 mg/kg, 5 mg/kg): 1762.06 ng/mL and 1336.63 ng/mL | Concentration in plasma, individual mice 1-3 (0.5 hr post-dose, IV 5 mg/kg, 5 mg/kg): 780.44 ng/mL and 1152.36 ng/mL | Concentration in plasma, individual mice 1-3 (1 hr post-dose, IV 5 mg/kg, 5 mg/kg): 122.63 ng/mL and 57.74 ng/mL and 263.97 ng/mL | Concentration in plasma, individual mice 1-3 (2 hr post-dose, IV 5 mg/kg, 5 mg/kg): 87.92 ng/mL and 114.00 ng/mL | Concentration in plasma, individual mice 1-3 (3 hr post-dose, IV 5 mg/kg, 5 mg/kg): 25.12 ng/mL and 9.38 ng/mL and 14.37 ng/mL | Concentration in plasma, individual mice 1-3 (4 hr post-dose, IV 5 mg/kg, 5 mg/kg): 74.08 ng/mL and 20.79 ng/mL and 7.37 ng/mL | Concentration in plasma, individual mice 1-3 (6 hr post-dose, IV 5 mg/kg, LOQ 5 ng/mL, 5 mg/kg): BLQ and 6.57 ng/mL | Concentration in plasma, individual mice 1-3 (8 hr post-dose, IV 5 mg/kg, LOQ 5 ng/mL): BLQ | Concentration in plasma, individual mice 1-3 (24 hr post-dose, IV 5 mg/kg, LOQ 5 ng/mL): BLQ | Systemic clearance as percent of mouse hepatic blood flow (5.40 L/hr/kg) (CD-1 mice, IV bolus 5 mg/kg): 30.37% | concentration at 0.033 hr (male, CD-1, mouse, plasma, iv, 5 mg/kg, 0.033 hr post-dose, IV 5 mg/kg): 18700 ng/mL | concentration at 0.083 hr (male, CD-1, mouse, plasma, iv, 5 mg/kg, 0.083 hr post-dose, IV 5 mg/kg, read-out: Concentration in plasma, Mean): 8000 ng/mL | concentration at 0.083 hr (male, CD-1, mouse, plasma, iv, 5 mg/kg, 0.083 hr post-dose, IV 5 mg/kg, read-out: Concentration in plasma, individual mice 1-3): 9330 ng/mL | concentration at 0.25 hr (male, CD-1, mouse, plasma, iv, 5 mg/kg, 0.25 hr post-dose, IV 5 mg/kg, read-out: Concentration in plasma, Mean): 1760 ng/mL | concentration at 0.25 hr (male, CD-1, mouse, plasma, iv, 5 mg/kg, 0.25 hr post-dose, IV 5 mg/kg, read-out: Concentration in plasma, individual mice 1-3): 2190 ng/mL | concentration at 0.5 hr (male, CD-1, mouse, plasma, iv, 5 mg/kg, 0.5 hr post-dose, IV 5 mg/kg, read-out: Concentration in plasma, Mean): 956 ng/mL | concentration at 0.5 hr (male, CD-1, mouse, plasma, iv, 5 mg/kg, 0.5 hr post-dose, IV 5 mg/kg, read-out: Concentration in plasma, individual mice 1-3): 934 ng/mL | concentration at 1 hr (male, CD-1, mouse, plasma, iv, 5 mg/kg, 1 hr post-dose, IV 5 mg/kg): 148 ng/mL | concentration at 2 hr (male, CD-1, mouse, plasma, iv, 5 mg/kg, 2 hr post-dose, IV 5 mg/kg, read-out: Concentration in plasma, Mean): 95.2 ng/mL | concentration at 2 hr (male, CD-1, mouse, plasma, iv, 5 mg/kg, 2 hr post-dose, IV 5 mg/kg, read-out: Concentration in plasma, individual mice 1-3): 83.6 ng/mL | concentration at 3 hr (male, CD-1, mouse, plasma, iv, 5 mg/kg, 3 hr post-dose, IV 5 mg/kg): 16.3 ng/mL | concentration at 4 hr (male, CD-1, mouse, plasma, iv, 5 mg/kg, 4 hr post-dose, IV 5 mg/kg): 34.1 ng/mL | concentration at 6 hr (male, CD-1, mouse, plasma, iv, 5 mg/kg, 6 hr post-dose, IV 5 mg/kg, BLQ designated as zero, read-out: Concentration in plasma, Mean): 4.15 ng/mL | concentration at 6 hr (male, CD-1, mouse, plasma, iv, 5 mg/kg, 6 hr post-dose, IV 5 mg/kg, LOQ 5 ng/mL, read-out: Concentration in plasma, individual mice 1-3): 5.87 ng/mL | Cmax (male, CD-1, mouse, plasma, iv, 5 mg/kg, CD-1 mice, IV 5 mg/kg, read-out: Cmax): 18700 ng/mL | Cmax (male, CD-1, mouse, plasma, iv, 5 mg/kg, IV, nominal dose 5 mg/kg, read-out: Cmax (at 2 minutes after dosing)): 18700 ng/mL | Tmax (male, mouse, plasma, CD-1 mice, IV 5 mg/kg): 1.8 min | clearance (male, mouse, plasma, CD-1 mice, IV 5 mg/kg, read-out: CLZ (systemic clearance) (converted)): 27.3 mL/min/kg | MRT inf (male, mouse, plasma, CD-1 mice, IV 5 mg/kg, read-out: MRT(0-∞)): 19.8 min | half-life (male, mouse, plasma, CD-1 mice, IV 5 mg/kg, read-out: T1/2z (half-life) (converted)): 84.6 min | Vd (male, mouse, plasma, CD-1 mice, IV 5 mg/kg, read-out: VZ (volume of distribution at terminal phase)): 3.33 L/kg | AUC(0-inf) [1]: 3050 ng·h/mL | AUC(0-t) [1]: 3020 ng·h/mL | Tissue distribution (mice, IV 5 mg/kg): distributes well in tissues | Volume of distribution as fold of total body water (0.73 L/kg) (mice, IV 5 mg/kg): 4.56 fold
